pIC50: −log10 of the molar value.
Columns and labels:
A549 (an adenocarcinoma) = assay: Induced-tumor NOD/SCID mouse model, A549; format: in vivo, NOD/SCID mice
Experimental: In another experiment, NOD/SCID mice, (NOD.CB17-Prkdcscid/J) were treated over a time course with 60 mg/kg of MT103 or a sham treatment, and a different lung cancer cell line was used, A549 (an adenocarcinoma), instead of NCI-H226 (a squamous carcinoma).

OVCAR-8 = assay: NCI 60 cell-line test; format: cell-based, human; conditions: OVCAR-8 (Ovarian Cancer)
Experimental: (§1) Methodology: The NCI conducted a test of the MT103 drug against 60 human cell lines, with a minimum of five concentrations of MT103 at 10-fold dilutions. A 48 hour continuous drug exposure was used, and a sulforhodamine B (SRB) protein assay was used to estimate cell viability and growth. The human tumor cell lines of the cancer screening panel were grown in RPMI 1640 medium containing 5% fetal bovine serum and 2 mM L-glutamine. Cells were inoculated into 96 well microtiter plates in 100 μL at plating densities ranging from 5,000 to 40,000 cells/well depending on the doubling time of individual cell lines. After cell inoculation, the microtiter plates are incubated at 37° C., 5% CO2, 95% air, and 100% relative humidity for 24 h prior to addition of experimental drugs.
(§2) After 24 h, two plates of each cell line were fixed in situ with TCA, to represent a measurement of the cell population for each cell line at the time of drug addition (Tz). MT103 was solubilized in dimethyl sulfoxide at 400-fold the desired final maximum test concentration and stored frozen prior to use. At the time of drug addition, an aliquot of frozen concentrate was thawed and diluted to twice the desired final maximum test concentration with complete medium containing 50 μg/ml gentamicin. Additional four, 10-fold or ½ log serial dilutions were made to provide a total of five drug concentrations plus control. Aliquots of 100 μl of these different drug dilutions were added to the appropriate microtiter wells already containing 100 μl of medium, resulting in the required final drug concentrations.
(§3) Following drug addition, the plates were incubated for an additional 48 h at 37° C., 5% CO2, 95% air, and 100% relative humidity. For adherent cells, the assay was terminated by the addition of cold TCA. Cells were fixed in situ by the gentle addition of 50 μl of cold 50% (w/v) TCA (final concentration, 10% TCA) and incubated for 60 minutes at 4° C. The supernatant was discarded, and the plates were washed five times with tap water and air dried. Sulforhodamine B (SRB) solution (100 μl) at 0.4% (w/v) in 1% acetic acid was added to each well, and plates were incubated for 10 minutes at room temperature. After staining, unbound dye was removed by washing five times with 1% acetic acid and the plates were air-dried. Bound stain was subsequently solubilized with 10 mM trizma base, and the absorbance was read on an automated plate reader at a wavelength of 515 nm. For suspension cells, the methodology was the same except that the assay was terminated by fixing settled cells at the bottom of the wells by gently adding 50 μl of 80% TCA (final concentration, 16% TCA). Using the seven absorbance measurements (time zero, (Tz), control growth, (C), and test growth in the presence of drug at the five concentration levels (Ti)), the percentage growth was calculated at each of the drug concentrations levels. Percentage growth inhibition was calculated as:
(§4) [(Ti-Tz)/(C-Tz)]×100 for concentrations for which Ti>/=Tz
(§5) [(Ti-Tz)/Tz]×100 for concentrations for which Ti<Tz.
(§6) Three dose response parameters were calculated for each experimental agent. Growth inhibition of 50% (GI50) was calculated from [(Ti-Tz)/(C-Tz)]×100=50, which is the drug concentration resulting in a 50% reduction in the net protein increase (as measured by SRB staining) in control cells during the drug incubation. The drug concentration resulting in total growth inhibition (TGI) was calculated from Ti=Tz. The LC50 (concentration of drug resulting in a 50% reduction in the measured protein at the end of the drug treatment as compared to that at the beginning) indicating a net loss of cells following treatment was calculated from [(Ti-Tz)/Tz]×100=−50. Values were calculated for each of these three parameters if the level of activity is reached; however, if the effect was not reached or was exceeded, the value for that parameter was expressed as greater or less than the maximum or minimum concentration tested.

NCI/ADR-RES = assay: NCI 60 cell-line test; format: cell-based, human; conditions: NCI/ADR-RES (Breast Cancer)
Experimental: as §1, §2, §3, §4, §5, §6

H226 cell cancer tumors = assay: Induced-tumor NOD/SCID mouse model (Example 7); format: in vivo, NOD/SCID mice; conditions: 30 mg/kg intraperitoneal every other day for two weeks
Experimental: A standard induced-tumor NOD/SCID mouse model was used to perform this investigation, with the mouse model being based on protocols for human xenograft systems developed at the National Cancer Institute. H226 cell cancer tumors were induced in NOD/SCID mice; tumors at sizes approximately 100 mm^3 were treated with 30 mg/kg MT103 or a control containing only vehicle (2.5% DMSO in distilled water) administered in intraperitoneal injections every other day for two weeks.

MCF7, NCI-H460, SF-268 = assay: NCI three cell-line test, all three cell lines; format: cell-based, human; conditions: one concentration tested (1×10^−4 Molar)
Experimental: The testing in this Example was performed by NCI, as per their 3-cell line panel test. The results are reported as the percent of the growth of the treated cells compared to the untreated control cells. The criterion for being an effective compound and for being subjected to further testing is that the tested compound reduce the growth of any one of the three cell lines to approximately 32% or less.
The methods for conducting the test are described below in Example 3, except that the cells were exposed to a single concentration of MT103, at 1×10^−4 Molar, and colorimetric determinations were made with alamar blue (Biotechniques 21(5):780-782 (1996)).
Methodology: The NCI conducted a test of the MT103 drug against 60 human cell lines, with a minimum of five concentrations of MT103 at 10-fold dilutions. […]
Following drug addition, the plates were incubated for an additional 48 h at 37° C., 5% CO2, 95% air, and 100% relative humidity. […] Bound stain was subsequently solubilized with 10 mM trizma base, and the absorbance was read on an automated plate reader at a wavelength of 515 nm. […] Using the seven absorbance measurements (time zero, (Tz), control growth, (C), and test growth in the presence of drug at the five concentration levels (Ti)), the percentage growth was calculated at each of the drug concentrations levels. Percentage growth inhibition was calculated as: […]

[1] = read-out: LC50 (the source's name)

Question: CC1(C)C2CC[C@@]1(CS(=O)(=O)N(C1CCCCC1)C1CCCCC1)C(O)C2 (stereo partly shown) [MT103] was tested. Which “onset of tumor growth” value (A549 (an adenocarcinoma); 60 mg/kg versus sham) did it give?
Answer: Its value is “delayed onset of tumor growth”.

Question: What about the “tumor size versus control” value (A549 (an adenocarcinoma); 60 mg/kg, t=30 days) of the same compound?
Answer: The value was “significantly smaller than the control groups”.

Question: What about the TGI (OVCAR-8) of the same compound?
Answer: The TGI was over 1.00E−04.

Question: What about the pIC50 (OVCAR-8; read-out: G150) of the same compound?
Answer: Its pIC50 is 4.60.

Question: And the CC50 (OVCAR-8; [1])?
Answer: Its CC50 is over 100 µM.

Question: What about the TGI (NCI/ADR-RES) of the same compound?
Answer: Its TGI is over 1.00E−04.

Question: And the pIC50 (NCI/ADR-RES; read-out: G150)?
Answer: The pIC50 was 4.46.

Question: What about the CC50 (NCI/ADR-RES; [1]) of the same compound?
Answer: The CC50 was over 100 µM.

Question: And the toxicity (H226 cell cancer tumors)?
Answer: Its toxicity is “without any evidence of toxicity”.

Question: And the tumor volume (H226 cell cancer tumors; FIG. 3)?
Answer: The tumor volume was “tumor volume was significantly decreased”.

Question: What about the mice body weight (H226 cell cancer tumors; FIG. 4) of the same compound?
Answer: Its mice body weight is “did not have deleterious effect on mice body weight”.

Question: What about the H226 tumor progression (H226 cell cancer tumors; p=0.038) of the same compound?
Answer: The H226 tumor progression was “slowed down H226 tumor progression significantly”.

Question: And the “growth of all three cell lines” value (MCF7, NCI-H460, SF-268)?
Answer: The value was at most 16%.

— patent US20040266732A1, “Therapeutic agents, methods, and treatments” (priority 2002, published 2004)
